Assay type in all cases: in vivo, Balb/c mice
Test [1] deals with 4T1 tumor. Briefly: Short-term tumor inhibition (BLI, tumor size, 15 days). The conditions noted are these: DOX alone. How it is done: (§1) The 4T1 tumor-bearing Balb/c mice may be randomly divided into six groups. In at least one example embodiment, each group may include three mice. In at least one example embodiment, a first group may receive PLGA. In at least one example embodiment, a second group may receive SPNCD. In at least one example embodiment, a third group may receive SPNCD and may be irradiated with NIR for 1 minute. In at least one example embodiment, a fourth group may receive SPNCD and may be irradiated with NIR for 7 minutes. In at least one example embodiment, a fifth group may receive SPNC and may be irradiated with NIR for 1 minute. In at least one example embodiment, a sixth group may receive DOX.
(§2) Once tumor volumes reach or become greater than 100 mm^3, the mice may be intratumorally injected with the various conditions (e.g., PLGA in the instance of the first group, SPNCD in the instance of the second group, SPNCD+NIR-1 minute in the instance of the third group, SPNCD+NIR-7 minute in the instances of the fourth group, SPNC+NIR-1 minute in the instance of the fifth group, and DOX in the instance of the sixth group) every 2 days for 15 days. Tumor size and mouse body weight may be measured every 2 days for 15 days in total. […]

Another test relates to F4/80-positive TAM. Nature of the test: F4/80 immunostaining of tumor sections (TAM accumulation). The conditions noted are these: without NIR. The procedure:
as §1, §2

In test [2] the test system is 4T1 tumor. Briefly: Apoptosis in tumors (flow cytometry and TUNNEL assay). The note with it: no NIR. The procedure: as §1, §2
A general note: In flow cytometry, cells or beads pass a laser one at a time.

Test [3] relates to 4T1 tumor. Nature of the test: Long-term tumor inhibition and metastasis, 4T1 tumor mice. The conditions noted are these: DOX alone; PBS 30 days. How it is done:
The 4T1 cells may be implanted into the mammary fat pads of six-week-old female Balb/c mice. In at least one example embodiment, about 1×10^6 cells may be implanted per mouse.
4T1 tumor-bearing Balb/c mice and BT549 tumor-bearing Nude mice ay be randomly divided into three groups. In at least one example embodiment, each group may include eight mice (PBS, SPNCD+NIR 7 min, DOX). Once tumor volumes reach or become greater than 100 mm^3, 4T1 tumor-bearing mice (DOX: 0.122 mg/kg) and BT549 tumor-bearing mice (DOX: 1.5 mg/kg) may be intratumorally injected with agents from the various conditions every 2 days for 15 days followed by NIR irradiation (808 nm, 1W). In at least one example embodiment, the DOX dose may be determined based on the IC50 of each cell line. Tumor size and mouse weight may be measured every 3 days for 80 days in total. Bioluminescence imaging (e.g., PerkinElmer, USA) may be conducted every 3 days by intraperitoneally injected D luciferin (e.g., 150 mg/kg) into 4T1 tumor-bearing Balb/c mice to observe the metastasis of 4T1 tumor-bearing Balb/c mice.
Tumor growth, mouse bodyweight, and tumor metastasis may be monitored for 80 days in 4T1 DOX-sensitive and BT459 DOX-resistant tumor mice. The mice may be randomly divided into four groups. In at least one example embodiment, each group may include five mice. […]

For the compound `COc1cccc2c1C(=O)c1c(O)c3c(c(O)c1C2=O)C[C@@](O)(C(=O)CO)C[C@@H]3O[C@H]1C[C@H](N)[C@H](O)[C@H](C)O1` [DOX, doxorubicin], the tumor size result in the test with 4T1 tumor [1] is “did not increase in size”. Besides, in the test on F4/80-positive TAM, the “F4/80-positive TAM accumulation versus PLGA treated groups” value is “increased more”. The apoptosis in tumor result in the test on 4T1 tumor [2] is “induced significant apoptosis”. The same compound had a time-to-tumor metastasis with 4T1 tumor [3] of 60 days post injection.
